For 35 compounds, IC50 results are on record in patent publication US20240043442A1, “SELECTIVE ESTROGEN RECEPTOR DEGRADERS AND USES THEREOF” (InventisBio LLC, priority 2016, published 2024).

One test has as its system breast cancer cell line MCF-7. Description: MCF-7 cell growth study (celltiter-glo luminescent viability assay).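 Note: viability read by luminescence after compound exposure, relative to DMSO vehicle-treated wells on the same plate.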 The following applies: Homo sapiens, MCF7, 144 h, MCF-7 cells, 6 days incubation; read-out: IC50 (nM), cell growth inhibition. It counts as cell-based, human.
Method: Compound activity was analyzed using celltiter-glo luminescent viability assay (Promega #G7572) in breast cancer cell line MCF-7. Cells grown in log phase are trypsinized and seeded into a 96-well cell culture plate at a density of 2×10^3 per well and incubated overnight at 37° C. with 5% CO2 in humidified culture chamber. The next day, compounds were prepared in 100% DMSO and were serially diluted and added into cells in the following final concentrations: 316, 100, 31.6, 10, 3.16, 1, 0.32, 0.1, 0.03, 0.01, 0.003 and 0.001 nM. As a control, same volume and concentration of DMSO vehicle control solution was added to the control wells in each plate. The cells were incubated with compounds at 37° C. culture chamber for 6 days. Promega's celltiter-glo kit was used to analyze the cell viability, according to manufacture's instruction. Briefly, fifty microliter of celltiter-glo reagent was added to each well, plate (covered with aluminum foil) was gently vibrated for 10 min to induce cell lysis at room temperature. Luminescence was measured using a SPECTRAmax i3 reader.
The IC50 is the concentration that gives 50% inhibition. On to `C[C@@H]1Cc2c([nH]c3ccccc23)[C@@H](c2c(F)cc(OCCN3CCCC3)cc2F)N1CC(C)(F)F` [Compound 2], for which the concentration for half-maximal inhibition (IC50) amounted to 0.9 nM. Consider `C[C@@H]1Cc2c([nH]c3ccccc23)[C@@H](c2c(F)cc(OCCN3CCCCC3)cc2F)N1CC(C)(F)F` [Compound 3], for which the IC50 was found to be 0.6 nM. Take `C[C@@H]1Cc2c([nH]c3ccccc23)[C@@H](c2c(F)cc(OCCN3CCCCCC3)cc2F)N1CC(C)(F)F` [Compound 4]: the concentration for half-maximal inhibition (IC50) was 0.9 nM. As to `C[C@@H]1Cc2c([nH]c3ccccc23)[C@@H](c2c(F)cc(OCCN3CCCCCC3)cc2F)N1CC(C)(C)F` [Compound 8], the 50% inhibitory concentration (IC50) amounted to 1 nM. Still for that read-out and setting: next, `C[C@@H]1Cc2c([nH]c3ccccc23)[C@@H](c2c(Cl)cc(OCCN3CC(CF)C3)cc2Cl)N1CC(C)(C)F` [Compound 9]: 3.1 nM; `C[C@@H]1Cc2c([nH]c3ccccc23)[C@@H](c2c(Cl)cc(OCCN3CC(CF)C3)cc2Cl)N1CC(C)(F)F` [Compound 10]: 3.2 nM; `CC1Cc2c([nH]c3ccc(F)cc23)C(c2c(Cl)cc(OCCN3CC(CF)C3)cc2Cl)N1CC(C)(C)F` (centres unmarked) [Compound 14B]: 2.6 nM.

With `COc1ccc2c3c([nH]c2c1)C(c1c(F)cc(OCCN2CC(CF)C2)cc1F)N(CC(C)(C)F)C(C)C3` (centres unmarked) [Compound 15A], the IC50 came out at 1.8 nM. As to `CC1Cc2c(oc3ccccc23)C(c2c(Cl)cc(OCCN3CC(CF)C3)cc2Cl)N1CC(C)(C)F` (centres unmarked) [Compound 18], the half-inhibitory concentration (IC50) came out at 8.9 nM. For the compound `CC1Cc2c([nH]c3ncccc23)C(c2c(F)cc(OCCN3CC(CF)C3)cc2F)N1CC(C)(F)F` (centres unmarked) [Compound 19A], the IC50 amounted to 3.1 nM. As to `CC1Cc2c([nH]c3ccc(F)cc23)C(c2c(Cl)cc(/C=C/C(=O)O)cc2Cl)N1CC(C)(C)F` (centres unmarked) [Compound 27B], the IC50 was determined as 0.7 nM. Regarding `C[C@@H]1Cc2c([nH]c3ccccc23)[C@@H](c2c(F)cc(/C=C/C(=O)O)cc2F)N1CC1(C)CC1` [Compound 30], the half-maximal inhibitory concentration (IC50) came out at 1 nM. Consider `CC(C)(F)CN1C(c2c(F)cc(/C=C/C(=O)O)cc2F)c2[nH]c3ccccc3c2CC1C(F)(F)F` (centres unmarked) [Compound 31A], for which the IC50 is 0.4 nM. In the case of `CC1Cc2c([nH]c3ncccc23)C(c2c(F)cc(/C=C/C(=O)O)cc2F)N1CC(C)(C)F` (centres unmarked) [Compound 32A], the IC50 came to 1.9 nM.

Turning to `CC1Cc2c([nH]c3ccc(F)cc23)C(c2c(F)cc(/C=C/C(=O)O)cc2F)N1CC(C)(F)F` (centres unmarked) [Compound 33A], the IC50 turned out to be 1.2 nM. For `CC1Cc2c([nH]c3cc(F)ccc23)C(c2c(F)cc(/C=C/C(=O)O)cc2F)N1CC(C)(F)F` (centres unmarked) [Compound 35A], the IC50 worked out at 2.5 nM. Still for that read-out and setting: then `CC1Cc2c([nH]c3cc(O)ccc23)C(c2c(F)cc(/C=C/C(=O)O)cc2F)N1CC(C)(C)F` (centres unmarked) [Compound 36], with 16 nM; and `COc1ccc2[nH]c3c(c2c1)CC(C)N(CC(C)(C)F)C3c1c(F)cc(/C=C/C(=O)O)cc1F` (centres unmarked) [Compound 37A], with 2.9 nM.

Consider `CC(C)CN1C(C)Cc2c([nH]c3ccc(F)cc23)C1c1c(F)cc(/C=C/C(=O)O)cc1F` (centres unmarked) [Compound 39A], for which the IC50 came to 2.6 nM. The same measure, in the same setting: then `CC1Cc2c([nH]c3cc(Cl)ccc23)C(c2c(F)cc(/C=C/C(=O)O)cc2F)N1CC(C)(C)F` (centres unmarked) [Compound 43B], with 0.8 nM; and `CC1Cc2c(oc3ccccc23)C(c2c(F)cc(/C=C/C(=O)O)cc2F)N1CC(C)(F)F` (centres unmarked) [Compound 44A], with 7.9 nM. As for `CC1Cc2c(oc3ccccc23)C(c2c(Cl)cc(/C=C/C(=O)O)cc2Cl)N1CC(C)(C)F` (centres unmarked) [Compound 45], the IC50 was found to be 8.9 nM. As to `CC1Cc2c(sc3ccccc23)C(c2c(F)cc(/C=C/C(=O)O)cc2F)N1CC(C)(C)F` (centres unmarked) [Compound 48A], the IC50 is 4.7 nM. As for `C[C@@H]1Cc2c([nH]c3ccccc23)[C@@H](c2c(F)cc(/C=C/C(=O)O)cc2Cl)N1CC(C)(F)F` [Compound 49], the 50% inhibitory concentration (IC50) was found to be 0.5 nM.

Staying with this test, now noted: MCF-7 cells, 6 days incubation; read-out: IC50 (nM), cell growth inhibition.
Turning to `CCC1Cc2c([nH]c3ccccc23)C(c2c(F)cc(/C=C/C(=O)O)cc2F)N1CC(C)(C)F` (single isomer, unassigned) [Compound 40A], the IC50 is 0.9 nM.

With `CCC1Cc2c([nH]c3ccccc23)C(c2c(F)cc(/C=C/C(=O)O)cc2F)N1CC(C)(C)F` (single isomer, unassigned) [Compound 40B], the half-inhibitory concentration (IC50) was over 100 nM. On the same count and under the same terms, then `CC1Cc2c([nH]c3ccc(Cl)cc23)C(c2c(F)cc(/C=C/C(=O)O)cc2F)N1CC(C)(C)F` (single isomer, unassigned) [Compound 42A], with 1.9 nM; and `CC1Cc2c([nH]c3ccc(Cl)cc23)C(c2c(F)cc(/C=C/C(=O)O)cc2F)N1CC(C)(C)F` (single isomer, unassigned) [Compound 42B], with over 100 nM.

As to `CC1Cc2c([nH]c3ccc(F)cc23)C(c2c(F)cc(OCCN3CC(CF)C3)cc2F)N1CC(C)(C)F` (centres unmarked) [Compound 13A], the IC50 was found to be 0.5 nM. On to `CC(C)(F)CN1C(c2c(F)cc(OCCN3CC(CF)C3)cc2F)c2[nH]c3ccccc3c2CC1C(F)(F)F` (centres unmarked) [Compound 16A], for which the IC50 came out at 0.6 nM. In the case of `CC1Cc2c(oc3ccccc23)C(c2c(F)cc(OCCN3CC(CF)C3)cc2F)N1CC(C)(C)F` (centres unmarked) [Compound 17A], the IC50 was found to be 0.8 nM. For `COc1ccc2c3c([nH]c2c1)C(c1c(F)cc(/C=C/C(=O)O)cc1F)N(CC(C)(C)F)C(C)C3` (centres unmarked) [Compound 22A], the half-inhibitory concentration (IC50) is 2.6 nM.

Consider `CC1Cc2c([nH]c3ccc(O)cc23)C(c2c(F)cc(/C=C/C(=O)O)cc2F)N1CC(C)(C)F` (centres unmarked) [Compound 23], for which the IC50 was found to be 4.2 nM.

Regarding `C[C@@H]1Cc2c([nH]c3ccccc23)[C@@H](c2c(F)cc(/C=C/C(=O)O)cc2F)N1CC1(F)CC1` [Compound 24], the IC50 worked out at 1.9 nM. As to `CC1Cc2c([nH]c3ccc(F)cc23)C(c2c(Cl)cc(/C=C/C(=O)O)cc2Cl)N1CC(C)(F)F` (centres unmarked) [Compound 28], the 50% inhibitory concentration (IC50) is 1.3 nM.
